Measurements taken from US12116363B2, “Combinations for immune-modulation in cancer treatment” (SENHWA BIOSCIENCES, INC., priority 2018, dated 2024).

How the values were obtained:
[1] = test system: A2780 ovarian cancer xenografts; assay: A2780 ovarian tumor xenograft model, gemcitabine and CX-4945; type: in vivo; conditions: gemcitabine 60 mg/kg i.v., CX-4945 100 mg/kg oral
[2] = test system: Colo-205 colorectal cancer model; assay: Colo-205 colorectal cancer model, gemcitabine and CX-4945; type: in vivo; conditions: Colo-205 model (FIG. 2)
From the text: The Colo-205 colorectal cancer model is resistant to each individual agent alone (FIG. 2).

4T1 breast cancer cells = assay: Tumor growth inhibition in immune-competent syngeneic mouse model 4T1; type: in vivo, Balb/C mice; conditions: 14 day; CX-4945 75 mg/kg oral BID Day 0-13; cisplatin 6 mg/kg i.p. QW Day 0 and 7
Experimental: Efficacy studies of tumor growth inhibition and T cells activities was conducted in an immune-competent syngeneic mouse models, 4T1, that is known to be resistant to the treatment of immune checkpoint inhibitors such as anti-PD1, anti-PD-L1, and anti-CTLA4. The resistance to these antagonists that modulates T cell […] signaling indicate a high immune suppressive tumor microenvironment.
This series of studies were conducted in Balb/C mice that are six to eight weeks old. Breast cancer cells, 4T1, were injected subcutaneously with 3×10^5 cells in 0.1 ml PBS to the right flank of the mice. Mice were randomized for treatment when the mean tumor size reached approximately 80-120 mm^3. Treatment were administered with CX-4945 and/or cisplatin at the doses and schedules described in Table 1. […] Tumors were measured two dimensionally (width×length) with an electronic caliper and tumor volume was calculated with the formula V=(L×W×W)/2, where V is tumor volume, L is tumor length (the longest tumor dimension) and W is tumor width (the longest tumor dimension perpendicular to L). The mice were monitored twice weekly and euthanized when tumor sizes reached approximately 800-1000 mm^3 for flow cytometry analysis.
Anti-tumor activities were measured as % Tumor Growth Inhibition (% TGI) at the time of euthanized. TGI was calculated as % TGI=100×(1−T/C). […]

[3] = test system: tumor-infiltrating T cells and MDSC in 4T1 tumor microenvironment; assay: Flow cytometry of immune cells in 4T1 tumors; type: in vivo, Balb/C mice; conditions: immune competent mice
Experimental: The composition of immune cells was analyzed with multi-color flow cytometry (FACS) at days when tumor reaches 800-1000 mm^3. Tumors were treated with dissociation media (Miltenyi, CAT #130-096-730) and resuspend in FACS buffer. T cell infiltration was measured by the investigating the number of T cells in the tumor samples. CD4 T, CD8 T, activated CD4 T, and activated CD8 T cells were identified by cell surface marker as CD45^+CD3^+CD4^+, CD45^+CD3^+CD8^+, CD45^+CD3^+CD4^+CD69^+, and CD45^+CD3^+CD8^+CD69^+, respectively. The absolute count of cells was measured by normalized number of cells with counting beads (eBiosciences CAT #01-1234-42) and the weight of each tumor sample. Absolute count of tumor-infiltrating T cells was calculated by the formula as Absolute count (cells/mg)=[(cell count×eBead Volume)/(eBead count×tumor weight)]×eBead concentration.

SMILES	% TGI [1] [%]	Median TTE days [1] [days]	delay in time to endpoint (TTE analysis) [1]	tumor growth [2]	% TGI (4T1 breast cancer cells) [%]	number of MDSC systemically or locally in the tumor microenvironment [3]
O=C(O)c1ccc2c(c1)nc(Nc1cccc(Cl)c1)c1ccncc12 [CX-4945, silmitasertib]	20	18	significant delay in time to endpoint	resistant	18	does not decrease
N.N.[Cl][Pt][Cl] [Cisplatin, cisplatin, reference compound]	–	–	–	–	45	–
Nc1ccn([C@@H]2O[C@H](CO)[C@@H](O)C2(F)F)c(=O)n1 [Gemcitabine, gemcitabine, reference compound]	68	28	significant delay in time to endpoint	resistant	–	–
